Results from article PMC7765388, “Synthesis and In Vitro Antiprotozoan Evaluation of 4-/8-Aminoquinoline-based Lactams and Tetrazoles” (Molecules, 2020).
Where two headings read alike, the source gives them in different places.

Experiments:
P. falciparum K1 strain = experiment: In vitro antiplasmodium activity, 3H-hypoxanthine incorporation assay; type: cell-based, Plasmodium falciparum; settings: for IC50: read-out: P. falciparum K1 IC50; for Selectivity Indices (SI) [(IC50 L6 Cell Line)/(IC50 K1 strain)]: L6 vs K1
Procedure: (§1) Antiplasmodial activity on the K1 strain, antitrypanosomal activity on T. b. brucei rhodesiense STIB900 and cytotoxicity on the L6 mammalian cell-line were all carried out at the Swiss Tropical and Public Health Institute (STPH), Switzerland as follows:
In vitro activity against erythrocytic stages of P. falciparum was determined using a ^3H-hypoxanthine incorporation assay, using the chloroquine and pyrimethamine-resistant K1 strain that originates from Thailand and the standard drug chloroquine (Sigma C6628). Compounds were dissolved in DMSO at 10 mg/mL and added to parasite cultures incubated in RPMI 1640 medium without hypoxanthine, supplemented with HEPES (5.94 g/L), NaHCO3 (2.1 g/L), neomycin (100 U/mL), Albumax^R (5 g/L) and washed human red cells A^+ at 2.5% hematocrit (0.3% parasitemia). Serial drug dilutions of eleven three-fold dilution steps covering a range from 100 to 0.002 μg/mL were prepared. The 96-well plates were incubated in a humidified atmosphere at 37 °C; 4% CO2, 3% O2, 93% N2. After 48 h, 50 μL of ^3H-hypoxanthine (= 0.5 μCi) was added to each well of the plate. The test compounds were tested in triplicate ad parasite growth compared to control or blank well. The plates were incubated for a further 24 h under the same conditions. The plates were then harvested with a Betaplate™ cell harvester (Wallac, Zurich, Switzerland), and the red blood cells transferred onto a glass fiber filter then washed with distilled water. The dried filters were inserted into a plastic foil with 10 mL of scintillation fluid and counted in a Betaplate™ liquid scintillation counter (Wallac, Zurich, Switzerland). IC50 values were calculated from sigmoidal inhibition curves by linear regression using Microsoft Excel.

[1] = tested on: Trypanosoma brucei rhodesiense STIB900; experiment: In vitro antitrypanosomal activity, alamarBlue assay; type: cell-based; settings: STIB900 bloodstream forms, 70 h + 2-4 h alamarBlue, read-out: T. b. brucie T. b. rhod IC50
Procedure: as §1
This stock was isolated in 1982 from a human patient in Tanzania and, after several mouse passages, was cloned and adapted to axenic culture conditions. Minimum essential medium (50 µL) supplemented with 25 mM HEPES, 1 g/L additional glucose, 1% MEM non-essential amino acids (100×), 0.2 mM 2-mercaptoethanol, 1 mM Na-pyruvate and 15% heat-inactivated horse serum was added to each well of a 96-well microtiter plate. Serial drug dilutions of eleven three-fold dilution steps covering a range from 100 to 0.002 μg/mL were prepared. Then, 4 × 10^3 bloodstream forms of T. b. rhodesiense STIB 900 in 50 µL was added to each well and the plate incubated at 37 °C under a 5% CO2 atmosphere for 70 h. 10 µL alamarBlue (resazurin, 12.5 mg in 100 mL double-distilled water) was then added to each well and incubation continued for a further 2–4 h. Then the plates were read with a Spectramax Gemini XS microplate fluorometer (Molecular Devices Cooperation, Sunnyvale, CA, USA) using an excitation wavelength of 536 nm and an emission wavelength of 588 nm. The test compounds were tested in triplicate, and their IC50 values were calculated by linear regression from the sigmoidal dose inhibition curves using Softmax Pro software (Molecular Devices Cooperation, Sunnyvale, CA, USA).

[2] = Aqueous kinetic solubility; type: physicochemical
Procedure: A 10 mM stock of the compound was diluted in DMSO to give standard solutions at 220 µM, 100 µM and 10 µM in a 96 well plate as described previously. The 10 mM stock was then spiked 1:50 in phosphate-buffered saline pH 7.0 to give a final DMSO concentration of 2%. Both the standard and sample solutions were plated in triplicate. After shaking for 2 h at 25 °C, the solutions were filtered and analyzed on an Agilent 1200 series HPLC with DAD detection. The solubility of the test compounds was determined by comparing the peak area of the sample solutions to that of the standard solutions.

[3] = In vitro cytotoxicity with L-6 cells, alamarBlue assay; type: cell-based; settings: rat, L6 cells, 70 h + 2 h alamarBlue, read-out: Cytotoxicity L6 Cell Lines IC50
Procedure: as §1
Assays were performed in triplicate in 96-well microtiter plates, each well containing 100 μL of RPMI 1640 medium supplemented with 1% L-glutamine (200 mM) and 10% fetal bovine serum, and 4000 L-6 cells (a primary cell line derived from rat skeletal myoblasts). Serial drug dilutions of eleven three-fold dilution steps covering a range from 100 to 0.002 μg/mL were prepared. After 70 h of incubation, the plates were inspected under an inverted microscope to assure the growth of the controls and sterile conditions. 10 μL of alamarBlue was then added to each well, and the plates incubated for another 2 h. Then the plates were read with a Spectramax Gemini XS microplate fluorometer (Molecular Devices Cooperation, Sunnyvale, CA, USA) using an excitation wavelength of 536 nm and an emission wavelength of 588 nm. The IC50 values were calculated by linear regression from the sigmoidal dose inhibition curves using Softmax Pro software (Molecular Devices Cooperation, Sunnyvale, CA, USA).

[4] = multidrug-resistant (chloroquine and pyrimethamine-resistant) K1 strain, erythrocytic stages, 72 h
[5] = Plasmodium falciparum, multidrug-resistant (chloroquine and pyrimethamine-resistant) K1 strain, erythrocytic stages, 72 h
[6] = L-6 cells (rat skeletal myoblasts)
[7] = aqueous buffer, kinetic from dmso stock, phosphate-buffered saline pH 7.0, 2% DMSO, 2 h at 25 °C
[8] = Plasmodium falciparum, K1, 72 h

Compound	IC50 (P. falciparum K1 strain; [4]) [µM]	IC50 [1] [µM]	Selectivity Indices (SI) [(IC50 L6 Cell Line)/(IC50 K1 strain)] (P. falciparum K1 strain)	IC50 (P. falciparum K1 strain; [5]) [µM]	IC50 ([1]; Trypanosoma brucei) [µM]	IC50 at 72 h [3, 6] [µM]	other results
N-{5-[(1-tert-butyl-1H-tetrazol-5-yl)(4-chlorophenyl)methylamino]pentan-2-yl}-6-methoxyquinolin-8-amine [Compound 6e]	1.8	21.4	–	–	–	–	solubility kinetic at 2 h ([2]; pH 7): <15 µM
COc1cccc(C(NCCCC(C)Nc2cc(OC)cc3cccnc23)c2nnnn2C(C)(C)C)c1 (stereo not shown) [Compound 6b]	–	–	38	1.98	14.2	75.5	–
COC1C(=O)N(CCCCNc2ccnc3cc(Cl)ccc23)C1c1ccccc1 (stereo not shown) [Compound 4g, 1-[4-(7-Chloroquinolin-4-ylamino)butyl]-3-methoxy-4-phenylazetidin-2-one]	–	–	9	0.31	20	2.87	solubility kinetic at 2 h [2, 7]: > 200 µM
N-{5-[(1-tert-butyl-1H-tetrazol-5-yl)(p-tolyl)methylamino]pentan-2-yl}-6-methoxyquinolin-8-amine [Compound 6c]	1.57	18.5	–	–	–	–	solubility kinetic at 2 h ([2]; pH 7): <5 µM
1-[2-(7-Chloroquinolin-4-ylamino)ethyl]-3-methoxy-4-p-tolylazetidin-2-one [Compound 4c]	0.58	52.5	–	–	–	–	–
COc1cc(NC(C)CCCN)c2ncccc2c1 (stereo not shown) [Primaquine, reference compound]	–	–	–	–	–	–	IC50 (P. falciparum K1 strain; [8]): 0.64 µM
1-[2-(7-Chloroquinolin-4-ylamino)ethyl]-4-(4-chlorophenyl)-3-methoxyazetidin-2-one [Compound 4e]	0.3	7.01	–	–	–	–	solubility kinetic at 2 h ([2]; pH 7): >200 µM
N-{5-[(1-tert-butyl-1H-tetrazol-5-yl)(phenyl)methylamino]pentan-2-yl}-6-methoxyquinolin-8-amine [Compound 6a]	2.47	18.1	–	–	–	–	–
1-[2-(7-Chloroquinolin-4-ylamino)ethyl]-3-methoxy-4-(4-methoxyphenyl)azetidin-2-one [Compound 4b]	0.62	52.9	–	–	–	–	–
COC1C(=O)N(CCNc2ccnc3cc(Cl)ccc23)C1c1ccc(Cl)c(Cl)c1 (stereo not shown) [Compound 4d, 1-[2-(7-Chloroquinolin-4-ylamino)ethyl]-4-(3,4-dichlorophenyl)-3-methoxyazetidin-2-one]	–	–	43	0.2	19	8.54	–
COC1C(=O)N(CCNc2ccnc3cc(Cl)ccc23)C1c1ccccc1 (stereo not shown) [Compound 4a, 1-[2-(7-Chloroquinolin-4-ylamino)ethyl]-3-methoxy-4-phenylazetidin-2-one]	–	–	211	0.47	53.2	98.5	solubility kinetic at 2 h [2, 7]: > 200 µM
N-{5-[(1-tert-butyl-1H-tetrazol-5-yl)(3,4-dichlorophenyl)methylamino]pentan-2-yl}-6-methoxyquinolin-8-amine [Compound 6d]	1.31	18.3	–	–	–	–	solubility kinetic at 2 h ([2]; pH 7): <5 µM
COc1cc([C@@H]2c3cc4c(cc3[C@H](O)[C@H]3COC(=O)[C@H]23)OCO4)cc(OC)c1OC [Podophyllotoxin, reference compound]	–	–	–	–	–	–	IC50 at 72 h [3]: 0.0193 µM
COC1C(=O)N(CCCNc2ccnc3cc(Cl)ccc23)C1c1ccccc1 (stereo not shown) [Compound 4f, 1-[3-(7-Chloroquinolin-4-ylamino)propyl]-3-methoxy-4-phenylazetidin-2-one]	–	–	25	0.57	16.1	14.4	–
CCN(CC)CCCC(C)Nc1ccnc2cc(Cl)ccc12 (stereo not shown) [Chloroquine, reference compound]	–	–	–	–	–	–	IC50 (P. falciparum K1 strain; [8]): 0.22 µM
